# Test results reported in the supplement of paper PMC10307832.
# Legend:
# Assay in all cases: relative viability (nuclei count vs DMSO), 5 days (fraction); higher = more cells survive
# AZ505 + Bortezomib = compound: C1CCC(CC1)N(CCNCCC2=C3C(=C(C=C2)O)NC(=O)CO3)C(=O)CCNCCC4=CC(=C(C=C4)Cl)Cl [AZ505] + CC(C)C[C@H](NC(=O)[C@H](Cc1ccccc1)NC(=O)c1cnccn1)B(O)O [Bortezomib] (partner 0.002 µM)
# How it was run: (§1)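 Lung cancer cell lines were pin-tool dosed in 1536-well plates on the day after seeding, with either a lone drug or a fixed anchor-drug dose plus five library-drug doses (not always all listed) in √10 steps. Nuclei were counted on 4× images after 5 days. Relative viability is the ratio of treated-well to vehicle-well nuclei counts, with each value a median of duplicate plates.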
# AZ505 + Linsitinib = compound: C1CCC(CC1)N(CCNCCC2=C3C(=C(C=C2)O)NC(=O)CO3)C(=O)CCNCCC4=CC(=C(C=C4)Cl)Cl [AZ505] + C[C@]1(O)C[C@@H](c2nc(-c3ccc4ccc(-c5ccccc5)nc4c3)c3c(N)nccn32)C1 [Linsitinib] (partner 1 µM)
# How it was run: as §1
# Dactolisib + Palbociclib = compound: Cn1c(=O)n(-c2ccc(C(C)(C)C#N)cc2)c2c3cc(-c4cnc5ccccc5c4)ccc3ncc21 [Dactolisib] + CC(=O)c1c(C)c2cnc(Nc3ccc(N4CCNCC4)cn3)nc2n(C2CCCC2)c1=O [Palbociclib] (partner 0.5 µM)
# How it was run: as §1
# Dactolisib + Dasatinib = compound: Cn1c(=O)n(-c2ccc(C(C)(C)C#N)cc2)c2c3cc(-c4cnc5ccccc5c4)ccc3ncc21 [Dactolisib] + Cc1nc(Nc2ncc(C(=O)Nc3c(C)cccc3Cl)s2)cc(N2CCN(CCO)CC2)n1 [Dasatinib] (partner 0.075 µM)
# How it was run: as §1
Cell Line,relative viability (AZ505 + Bortezomib; first compound 0.08 µM),relative viability (AZ505 + Bortezomib; first compound 0.253 µM),relative viability (AZ505 + Bortezomib; first compound 0.8 µM),relative viability (AZ505 + Bortezomib; first compound 2.53 µM),relative viability (AZ505 + Bortezomib; first compound 8 µM),relative viability (AZ505 + Linsitinib; first compound 0.08 µM),relative viability (AZ505 + Linsitinib; first compound 0.253 µM),relative viability (AZ505 + Linsitinib; first compound 0.8 µM),relative viability (AZ505 + Linsitinib; first compound 2.53 µM),relative viability (AZ505 + Linsitinib; first compound 8 µM),relative viability (Dactolisib + Palbociclib; first compound 0.002 µM),relative viability (Dactolisib + Palbociclib; first compound 0.006325 µM),relative viability (Dactolisib + Palbociclib; first compound 0.02 µM),relative viability (Dactolisib + Palbociclib; first compound 0.06325 µM),relative viability (Dactolisib + Palbociclib; first compound 0.2 µM),relative viability (Dactolisib + Dasatinib; first compound 0.002 µM),relative viability (Dactolisib + Dasatinib; first compound 0.006325 µM),relative viability (Dactolisib + Dasatinib; first compound 0.02 µM),relative viability (Dactolisib + Dasatinib; first compound 0.06325 µM),relative viability (Dactolisib + Dasatinib; first compound 0.2 µM)
NCI-H2405,0.733,0.802,0.81,0.859,0.925,0.585,0.639,0.62,0.563,0.714,0.471,0.542,0.449,0.314,0.291,0.224,0.238,0.207,0.213,0.187
NCI-H3122,1.01,1.02,1.07,1.04,1.03,0.963,1.03,0.911,1.01,0.967,0.18,0.198,0.173,0.16,0.137,0.702,0.818,0.752,0.675,0.225
PC-3 [JPC-3],0.735,0.768,0.684,0.775,0.771,0.923,0.935,0.938,0.862,0.947,0.596,0.544,0.59,0.511,0.418,1.1,0.941,0.911,1.03,0.885
PC-14,0.776,0.877,0.882,0.768,0.841,0.88,0.948,0.922,0.881,0.951,0.654,0.487,0.446,0.0827,0.0725,0.312,0.285,0.264,0.0655,0.0441
RERF-LC-KJ,1.02,1.02,1.18,1.09,1.12,0.857,0.85,0.929,0.897,0.902,1.19,1.12,0.863,0.438,0.452,0.99,0.747,0.69,0.347,0.311
SK-LU-1,0.703,0.561,0.778,0.923,0.761,0.45,0.592,0.798,0.588,0.765,0.335,0.393,0.337,0.268,0.281,0.148,0.172,0.162,0.145,0.127
SW 1573,0.907,1.08,0.939,1.12,1.08,0.666,0.828,0.849,0.872,0.829,0.395,0.324,0.225,0.154,0.116,0.627,0.493,0.306,0.146,0.119
